The values that follow come from article PMC4551797 (PLoS ONE, 2015).

The target of one data set is T1, GPR119 (Homo sapiens, UniProt Q8TDV5).
T1 sequence (Q8TDV5 1-335): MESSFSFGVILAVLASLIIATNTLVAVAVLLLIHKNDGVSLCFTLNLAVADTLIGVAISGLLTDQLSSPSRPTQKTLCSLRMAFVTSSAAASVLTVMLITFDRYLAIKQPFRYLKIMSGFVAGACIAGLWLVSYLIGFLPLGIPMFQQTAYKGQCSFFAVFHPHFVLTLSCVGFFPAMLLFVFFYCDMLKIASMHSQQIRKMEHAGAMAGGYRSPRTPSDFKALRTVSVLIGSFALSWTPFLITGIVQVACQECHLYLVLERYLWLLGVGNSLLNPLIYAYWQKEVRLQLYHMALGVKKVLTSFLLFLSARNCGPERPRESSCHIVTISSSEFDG
Briefly: Selectivity: enteroendocrine GPCR GPR119.

The target in the next data set is T2, FXR (Homo sapiens, UniProt Q96RI1).
T2 sequence (Q96RI1 1-486): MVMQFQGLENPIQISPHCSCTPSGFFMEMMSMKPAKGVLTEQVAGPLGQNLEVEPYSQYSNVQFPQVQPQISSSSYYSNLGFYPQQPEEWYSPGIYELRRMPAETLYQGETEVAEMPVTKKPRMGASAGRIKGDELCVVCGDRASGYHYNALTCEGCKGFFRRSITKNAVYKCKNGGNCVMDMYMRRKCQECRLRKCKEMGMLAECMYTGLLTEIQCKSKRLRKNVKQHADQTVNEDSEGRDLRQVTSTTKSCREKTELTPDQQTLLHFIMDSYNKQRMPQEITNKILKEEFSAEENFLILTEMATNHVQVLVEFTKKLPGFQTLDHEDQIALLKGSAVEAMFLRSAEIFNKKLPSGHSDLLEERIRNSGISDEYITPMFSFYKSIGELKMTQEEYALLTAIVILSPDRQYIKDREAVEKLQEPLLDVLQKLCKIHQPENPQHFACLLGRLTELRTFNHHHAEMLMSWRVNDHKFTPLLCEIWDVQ
Briefly: Selectivity: nuclear hormone receptor FXR.

The test system of a further data set is C57BL/6 mice. Kind of data set: Oral glucose tolerance test with hormone measurement. It is filed as in vivo, mouse. The conditions noted are these: 30 mg/kg oral, glucose 3 g/kg. The method, then: For measurement of glucose only, overnight-fasted C57BL/6 mice in a normal light cycle were orally dosed with vehicle or compound, followed by an oral bolus of 3 g/kg glucose at 15 minutes post compound. At 0, 20, 40, 60, and 120 minutes post glucose dose, blood glucose was assessed via glucometers. Resulting raw data was used to generate AUCs. For measurement of hormones and glucose, overnight-fasted C57BL/6 mice acclimated for two weeks to a reverse light cycle were orally dosed with vehicle or compound, followed by an oral bolus of 3 g/kg glucose at 15 minutes post compound. At 0, 2, 5, 10, 20, 40, and 60 minutes post glucose dose, blood glucose was assessed via glucometers, followed immediately by collection of plasma for active GLP-1 (Mesoscale Discovery), insulin (Mesoscale Discovery), and total PYY. Glucose tolerance tests in diet-induced obese (DIO) C57BL/6 mice were performed in overnight-fasted animals dosed either acutely or after 2-week administration with vehicle or compound 18 at 60 mg/kg, followed 30 minutes post compound by an oral bolus of 2 g/kg glucose. At 0, 15, 30, 60, and 120 minutes post glucose dose, blood glucose was assessed via glucometers. Resulting raw data was used to generate AUCs.
To evaluate glucose, insulin, GLP-1, and PYY levels throughout the OGTT, each time-point consisted of a separate group of mice that were used to record glucose by use of a glucometer followed by terminal bleeds for measurement of active GLP-1, total PYY, and insulin. AUCs were then calculated for the entire hour of the OGTT. […] Changes in insulin AUCs were not increased with treatment of either sitagliptin or compound 18, likely due to the lower glucose levels reducing the drive for glucose-stimulated insulin secretion (Fig 5D).
Fig 5 Compound 18 increases GLP-1 and PYY and lowers the glucose and insulin excursions as compared to sitagliptin in an OGTT in C57BL/6 mice. […] Plasma was analyzed for active GLP-1 (A), total PYY (B), and insulin (D), while blood glucose was measured by glucometers (C).

For the next data set, the system named is Tgr5 KO mice. Kind of data set: Three-day study on GLP-1, PYY and bile weight in Tgr5 KO mice. The conditions noted are these: 100 mg/kg oral BID 3 days, 30 min after last dose.

Description for Tgr5 KO mice: C57BL/6 mice, Tgr5 KO mice, or their wild-type littermate controls were orally dosed with vehicle or compounds twice per day for 3 days, with overnight fasting performed on the evening of day 2. On the morning of day 3, animals were dosed orally with compounds and then euthanized by CO2 asphyxiation at 30 minutes after the fifth dose. Plasma was collected for analysis of GLP-1 (X-36) amide as mentioned above, followed immediately by incision into the abdominal cavity to remove and weigh bile from the gallbladder.

The EC50 is the concentration that produces a half-maximal response. Take `CC(=O)N1CCC(C(C)N(C(=O)COc2cccc3sc4nc(C)cn4c23)c2ccc(F)cc2)CC1` (stereo not drawn) [compound 18]: the EC50 on GPR119 was > 125 µM. Besides, the EC50 at FXR is > 125 µM. Moreover, in the data set on C57BL/6 mice (1 hour), the “AUC of active GLP-1 during OGTT” value was “superior AUC for active GLP-1 above both vehicle and sitagliptin”; the “AUC of total PYY during OGTT” value is “higher increase in the AUC of total PYY above both vehicle and sitagliptin”; the “insulin AUC during OGTT” value is on record as “not increased”. Besides, the “glucose excursion during OGTT” value in the data set with C57BL/6 mice (versus sitagliptin 10 mg/kg) is on record as “levels indistinguishable from those of sitagliptin-treated animals”. Further, in the data set with Tgr5 KO mice, the GLP-1 result was “no detectable increase”, the PYY result is given as “no detectable increase” and the bile weight entry is recorded as “no detectable increase”.
